Test results taken from patent US7531320B2, “Modulation of β-catenin/TCF-activated transcription” (priority 2003, dated 2009).

What was measured:
Format in all cases: cell-based, human
[1] = system: caspase-3/7 in HCT116 cells; assay: Caspase-3/7 activity assay, HCT116 cells; conditions: 25 μM, 24 hours, compared to CCD18Co cells
Method: FIG. 6. • A. COMPOUND 1 arrests cells in G1. FACS analysis was performed on SW480 (lower panel) and HCT116 (upper panel) cells treated for 24 hours with either COMPOUND 1 (25 μM) (right) or control (0.5% DMSO (left). 5.5×10^6 cells were fixed and stained with propidium iodide (PI). G0/G1, S, and G2/M are indicated by arrows. • B. COMPOUND 1 selectively activates caspases in colon carcinoma cell lines. SW480 and HCT116 (left graph) cells (10^5) along with the normal colonocytes, CCD18Co (right graph) were treated with either control (0.5% DMSO) or COMPOUND 1 (25 μM). 24 hours post treatment, cells were lysed and the caspase-3/7 enzymatic activities were measured. Relative fluorescence units (RFU) were calculated by subtracting the unit values of the blank (control, without cells) from the treated samples (COMPOUND 1 or control) and plotted.
SW480, HCT116, and CCD18Co cells were plated at 10^5 cells per well (96-well plates) for 24 hours prior to treatment. 25 μM of COMPOUND 1 or control (0.5% DMSO) was added to each well. 24 hours post treatment, cells were lysed and caspase activity was measured using a caspase-3/7 activity kit (Apo-One Homogeneous caspase-3/7 assay, #G77905, Promega). Relative fluorescence units (RFU) were obtained by subtracting the unit values of the blank (control, without cells) from the experimental measured values. […]

cyclin D1 promoter = assay: ChIP assay, cyclin D1 promoter in SW480 cells; conditions: 25 μM
Method: FIG. 5. COMPOUND 1 inhibits the expression of cyclin D1. • A. Cyclin D1 levels are decreased with COMPOUND 1 treatment. Western blot analysis was performed on 25 μg of SW480 whole cell lysates treated for 4, 8, or 24 hours with either 25 μM of COMPOUND 1 or control (0.5% DMSO). Immunoblotting was performed using anti-Cyclin D1 antibodies (Santa Cruz Biotechnology Inc.). • B. In vivo occupancy of cyclin D1 and c-myc promoters by CBP and p300. […] ChIP assays were performed on promoter of c-myc from SW480 cells which was treated for 8 hours with COMPOUND 1 (25 μM) or control (0.5% DMSO). CBP (AC-26, a generous gift from Dr. David Livingston, Harvard University, Boston, Mass.) or p300 (C-20, Santa Cruz Biotechnology Inc.) specific antibodies were used to evaluate the promoter occupancy by CBP or p300 in presence of COMPOUND 1 or control (DMSO) treatment.
Formaldehyde cross-linking and chromatin immunoprecipitation assays of SW480 cells were performed as described previously (Barlev et al., “Acetylation of p53 activates transcription through recruitment of coactivators/histone acetyltransferases,” Mol. Cell 8:1243-54 (2001); El-Osta et al., “Analysis of chromatin-immunopurified MeCP2-associated fragments,” Biochem. Biophys. Res. Commun. 289:733-37 (2001); Shang et al., “Formation of the androgen receptor transcription Complex,” Mol. Cell 9:601-10 (2002)). […]

SW480 cells = assay: Soft agar colony formation assay with SW480 cells
[2] = system: nuclear β-catenin in HCT116 cells; assay: β-catenin immunofluorescence localization in HCT116 cells; conditions: 25 μM, 24 hours, to cytoplasmic membrane
Method: FIG. 4. COMPOUND 1 decreases nuclear β-catenin • A. β-catenin immunofluorescence microscopy. Log phase SW480 (left) and HCT116 (right) cells were fixed and stained with either anti-β-catenin red (upper panel, A) or anti-CBP (upper panel, B) green. The center panel represents the superimposed β-catenin and CBP in SW480 (left) and HCT116 (right) cells. […] 25 μg of total protein from the cell extracts of SW480 cells with or without 24 hr treatment of COMPOUND1 was used for detection of cytosolic and nuclear β-catenin.
Immunofluorescence was used to examine the localization of CBP and β-catenin in SW480 and HCT116 cells treated with COMPOUND 1 (25 μM) or control (0.5% DMSO). Cells at log phase were seeded and after 24 hours, the cells were treated with COMPOUND 1 or control. 24 hours post treatment, cells were fixed. The coverslips were incubated with antibodies raised against CBP (A-22) (Santa Cruz Biotechnology) and β-catenin (Transduction Laboratories), respectively. The slides were examined using a Nikon PCM 2000 Laser Scanning Confocal Microscope after the secondary antibodies conjugated to either FITC or TRITC (Jackson ImmunoResearch, Westgrove, Pa.) were applied.

SMILES: O=C1C(Cc2ccc(O)cc2)N2C(=O)CCN(C(=O)NCc3ccccc3)C2CN1Cc1cccc2ccccc12 (centres unmarked) [COMPOUND 1]
- Caspase-3/7 activity [1]: specifically and significantly activated
- Association of CBP with the cyclin D1 promoter (cyclin D1 promoter): completely and selectively blocks
- Number of colonies formed in soft agar (SW480 cells; 0.25-5 μM): dose dependent decrease
- IC50 (SW480 cells; 5000 cells/well, colonies counted after 8 days): 870 ± 110 nM
- Subcellular distribution of β-catenin [2]: redistribution of β-catenin
